Molecular target: Human immunodeficiency virus type 1 protease (Human immunodeficiency virus 1, UniProt Q72874)
Assay: Inhibitory constant against HIV-1 protease

First: COC(=O)[C@@H](NC(=O)[C@@H](/C=C/[C@@H](C(=O)N[C@H](C(=O)OC)C(C)C)C(C)C)Cc1ccccc1)C(C)C
Second: COC(=O)[C@@H](NC(=O)[C@@H](C)/C=C/[C@@H](Cc1ccccc1)C(=O)N[C@H](C(=O)OC)C(C)C)C(C)C
The Ki of the first is lower: 5 µM for the first, greater than 67 µM for the second. The first binds more tightly here.

COC(=O)[C@@H](NC(=O)[C@@H](/C=C/[C@H](C)C(=O)N[C@H](C(=O)OC)C(C)C)C(C)C)C(C)C gave a Ki greater than 67 µM.

Reference: ChEMBL document CHEMBL1126530, “A concise enantioselective synthesis of rans-olefin dipeptide isosteres” (Bioorg Med Chem Lett, 1993)
